Test [1] deals with T1, Aurora kinase A (Homo sapiens) (UniProt O14965).
T1 sequence (whole entry): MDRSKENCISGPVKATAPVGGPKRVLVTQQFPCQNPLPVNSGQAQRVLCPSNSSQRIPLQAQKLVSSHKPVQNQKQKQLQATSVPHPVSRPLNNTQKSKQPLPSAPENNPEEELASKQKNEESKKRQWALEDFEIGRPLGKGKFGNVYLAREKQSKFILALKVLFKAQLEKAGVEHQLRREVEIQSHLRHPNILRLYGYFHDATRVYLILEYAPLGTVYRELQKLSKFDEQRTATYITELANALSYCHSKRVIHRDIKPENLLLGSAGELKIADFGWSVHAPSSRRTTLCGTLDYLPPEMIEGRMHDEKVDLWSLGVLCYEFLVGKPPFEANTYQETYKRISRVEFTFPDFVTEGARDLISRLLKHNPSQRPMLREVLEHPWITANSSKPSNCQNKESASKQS
Kind of test: Inhibition of AurA (unknown origin) at 10 uM.

Test [2] deals with T2, Mitogen-activated protein kinase 8 (Homo sapiens, UniProt P45983). Briefly: Inhibition of JNK1 (unknown origin) at 10 uM.
The target in test [3] is Epithelial discoidin domain-containing receptor 1 (Homo sapiens) (UniProt Q08345). Briefly: Inhibition of DDR1 (unknown origin) at 10 uM.
Test [4] addresses Cyclin-dependent kinase 4/cyclin D1 (Homo sapiens) (UniProt P11802+P24385). Briefly: Inhibition of CDK4/cyclin D1 (unknown origin) at 10 uM. The class given is protein-complex assay.
The target of test [5] is T3, Tyrosine-protein kinase JAK3 (Homo sapiens) (UniProt P52333).
T3 sequence (whole entry): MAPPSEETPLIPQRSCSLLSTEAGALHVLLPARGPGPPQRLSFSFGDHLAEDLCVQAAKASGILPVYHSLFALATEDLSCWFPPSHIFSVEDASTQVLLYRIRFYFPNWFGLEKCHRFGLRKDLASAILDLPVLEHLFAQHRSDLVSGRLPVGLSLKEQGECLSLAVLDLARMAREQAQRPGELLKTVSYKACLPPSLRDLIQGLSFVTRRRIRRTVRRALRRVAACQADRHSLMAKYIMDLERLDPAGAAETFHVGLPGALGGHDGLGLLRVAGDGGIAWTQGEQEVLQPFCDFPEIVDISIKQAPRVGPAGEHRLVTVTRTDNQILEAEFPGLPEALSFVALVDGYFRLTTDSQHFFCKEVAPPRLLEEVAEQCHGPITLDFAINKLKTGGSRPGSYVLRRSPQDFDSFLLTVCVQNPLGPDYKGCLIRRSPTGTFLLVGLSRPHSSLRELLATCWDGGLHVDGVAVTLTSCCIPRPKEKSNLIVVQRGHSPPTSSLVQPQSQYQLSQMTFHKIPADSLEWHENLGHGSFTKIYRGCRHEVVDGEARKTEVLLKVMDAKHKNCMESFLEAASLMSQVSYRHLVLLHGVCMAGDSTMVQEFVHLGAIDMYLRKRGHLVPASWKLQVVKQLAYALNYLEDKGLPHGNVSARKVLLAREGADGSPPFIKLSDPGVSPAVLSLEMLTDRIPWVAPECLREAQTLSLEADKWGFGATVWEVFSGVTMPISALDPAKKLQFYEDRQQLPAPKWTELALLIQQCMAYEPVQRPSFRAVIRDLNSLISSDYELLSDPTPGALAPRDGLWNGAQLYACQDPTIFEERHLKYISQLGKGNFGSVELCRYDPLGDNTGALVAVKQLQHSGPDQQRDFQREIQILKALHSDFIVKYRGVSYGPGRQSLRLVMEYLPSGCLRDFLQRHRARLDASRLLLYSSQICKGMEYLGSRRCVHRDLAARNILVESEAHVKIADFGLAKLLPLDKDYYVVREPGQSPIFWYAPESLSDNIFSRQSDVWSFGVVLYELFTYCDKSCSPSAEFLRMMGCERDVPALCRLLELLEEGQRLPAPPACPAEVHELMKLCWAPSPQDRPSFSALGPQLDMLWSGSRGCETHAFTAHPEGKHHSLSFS
Briefly: Inhibition of JAK3 (unknown origin) at 10 uM.

The target in test [6] is T4, Inhibitor of nuclear factor kappa-B kinase subunit beta (Homo sapiens) (UniProt O14920).
T4 sequence (whole entry): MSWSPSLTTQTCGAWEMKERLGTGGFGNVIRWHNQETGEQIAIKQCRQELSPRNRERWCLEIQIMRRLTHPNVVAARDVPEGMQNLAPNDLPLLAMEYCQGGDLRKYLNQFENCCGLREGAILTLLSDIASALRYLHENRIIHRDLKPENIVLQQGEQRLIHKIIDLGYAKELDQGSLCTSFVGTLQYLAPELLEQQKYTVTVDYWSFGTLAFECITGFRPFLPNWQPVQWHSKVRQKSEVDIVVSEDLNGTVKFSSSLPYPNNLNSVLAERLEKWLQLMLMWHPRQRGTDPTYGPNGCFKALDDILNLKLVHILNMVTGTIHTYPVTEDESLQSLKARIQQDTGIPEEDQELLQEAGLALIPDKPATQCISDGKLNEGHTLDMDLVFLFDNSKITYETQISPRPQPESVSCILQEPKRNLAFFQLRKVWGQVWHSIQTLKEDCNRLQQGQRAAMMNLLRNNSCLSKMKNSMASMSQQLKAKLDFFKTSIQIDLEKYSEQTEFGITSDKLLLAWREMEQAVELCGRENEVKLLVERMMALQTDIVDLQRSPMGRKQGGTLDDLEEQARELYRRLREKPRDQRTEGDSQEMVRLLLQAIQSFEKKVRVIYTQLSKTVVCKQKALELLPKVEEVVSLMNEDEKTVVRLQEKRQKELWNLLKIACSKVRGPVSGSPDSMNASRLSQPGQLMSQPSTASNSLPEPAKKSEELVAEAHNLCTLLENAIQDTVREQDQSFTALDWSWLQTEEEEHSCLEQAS
Kind of test: Inhibition of IKKbeta (unknown origin) at 10 uM.

For test [7], the target named is Proto-oncogene tyrosine-protein kinase receptor Ret (Homo sapiens) (UniProt P07949). Briefly: Inhibition of RET (unknown origin) at 10 uM.
Test [8] deals with Receptor tyrosine-protein kinase erbB-2 (Homo sapiens) (UniProt P04626). Briefly: Inhibition of ERBB2 (unknown origin) at 10 uM.
Test [9] deals with Serine/threonine-protein kinase PAK 1 (Homo sapiens) (UniProt Q13153). Briefly: Inhibition of PAK1 (unknown origin) at 10 uM.
For test [10], the target named is Death-associated protein kinase 3 (Homo sapiens) (UniProt O43293). Kind of test: Inhibition of DAPK3 (unknown origin) at 10 uM.
For test [11], the target named is Tyrosine-protein kinase ABL1 (Homo sapiens) (UniProt P00519). Briefly: Inhibition of ABL (unknown origin) at 10 uM.
In test [12] the target is Serine/threonine-protein kinase PAK 4 (Homo sapiens) (UniProt O96013). Briefly: Inhibition of PAK4 (unknown origin) at 10 uM.
The target of test [13] is T2, Mitogen-activated protein kinase 8. Kind of test: Inhibition of JNK1 (unknown origin).
Test [14] has the same target. Briefly: Inhibition of JNK1 (unknown origin) expressed in HEK293 cells assessed as anisomycin-induced IRS-1(Ser307) phosphorylation at 10 uM incubated for 30 mins by Western blot analysis relative to anisomycin. The format is cell-based. On the set-up: scale not given: the % may be the effect or the level left. For orientation: Immunoblotting shows a protein as a band on a membrane.

By inhibition is commonly meant the share of the control response that was lost under treatment. What is called IC50 is the concentration needed to halve the response being measured.

Molecules are shown by their SMILES.

T2 sequence (P45983 whole entry, the tested form may be a part): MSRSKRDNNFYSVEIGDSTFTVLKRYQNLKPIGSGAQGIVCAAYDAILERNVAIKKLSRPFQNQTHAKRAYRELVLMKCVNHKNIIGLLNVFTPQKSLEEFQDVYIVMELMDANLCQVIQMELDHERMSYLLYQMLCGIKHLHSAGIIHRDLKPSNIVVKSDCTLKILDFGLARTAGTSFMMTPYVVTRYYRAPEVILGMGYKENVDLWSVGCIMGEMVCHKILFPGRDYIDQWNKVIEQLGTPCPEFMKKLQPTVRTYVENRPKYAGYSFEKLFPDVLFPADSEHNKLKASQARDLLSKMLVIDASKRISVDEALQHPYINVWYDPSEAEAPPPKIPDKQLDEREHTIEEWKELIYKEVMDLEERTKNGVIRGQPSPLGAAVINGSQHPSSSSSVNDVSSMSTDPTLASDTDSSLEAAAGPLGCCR
Chain of Epithelial discoidin domain-containing receptor 1 (Homo sapiens) (Q08345 whole entry, the tested form may be a part): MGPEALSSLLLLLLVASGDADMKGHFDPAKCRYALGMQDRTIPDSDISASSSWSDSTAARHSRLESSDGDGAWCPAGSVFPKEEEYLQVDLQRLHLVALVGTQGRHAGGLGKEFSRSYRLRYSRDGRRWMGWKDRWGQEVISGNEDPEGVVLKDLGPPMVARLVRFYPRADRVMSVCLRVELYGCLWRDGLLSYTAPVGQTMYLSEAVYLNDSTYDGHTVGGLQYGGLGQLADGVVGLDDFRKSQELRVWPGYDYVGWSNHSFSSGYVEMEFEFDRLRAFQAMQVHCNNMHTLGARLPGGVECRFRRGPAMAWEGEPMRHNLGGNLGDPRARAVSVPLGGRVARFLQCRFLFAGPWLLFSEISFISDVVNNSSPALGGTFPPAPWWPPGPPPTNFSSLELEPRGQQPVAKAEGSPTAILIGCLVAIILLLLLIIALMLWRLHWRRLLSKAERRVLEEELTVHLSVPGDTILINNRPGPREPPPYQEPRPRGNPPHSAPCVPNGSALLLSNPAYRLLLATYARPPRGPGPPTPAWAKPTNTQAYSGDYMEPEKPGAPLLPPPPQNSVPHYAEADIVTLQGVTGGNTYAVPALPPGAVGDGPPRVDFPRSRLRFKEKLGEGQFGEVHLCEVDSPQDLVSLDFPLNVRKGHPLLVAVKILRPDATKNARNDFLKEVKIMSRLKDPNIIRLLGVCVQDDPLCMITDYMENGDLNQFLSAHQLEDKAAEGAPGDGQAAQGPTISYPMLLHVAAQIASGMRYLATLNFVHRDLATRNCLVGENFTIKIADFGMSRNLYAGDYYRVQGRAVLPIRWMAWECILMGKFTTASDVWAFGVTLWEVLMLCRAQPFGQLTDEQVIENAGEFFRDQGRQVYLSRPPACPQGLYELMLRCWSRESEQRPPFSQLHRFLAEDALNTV
Chain of Death-associated protein kinase 3 (Homo sapiens) (O43293 whole entry, looked up): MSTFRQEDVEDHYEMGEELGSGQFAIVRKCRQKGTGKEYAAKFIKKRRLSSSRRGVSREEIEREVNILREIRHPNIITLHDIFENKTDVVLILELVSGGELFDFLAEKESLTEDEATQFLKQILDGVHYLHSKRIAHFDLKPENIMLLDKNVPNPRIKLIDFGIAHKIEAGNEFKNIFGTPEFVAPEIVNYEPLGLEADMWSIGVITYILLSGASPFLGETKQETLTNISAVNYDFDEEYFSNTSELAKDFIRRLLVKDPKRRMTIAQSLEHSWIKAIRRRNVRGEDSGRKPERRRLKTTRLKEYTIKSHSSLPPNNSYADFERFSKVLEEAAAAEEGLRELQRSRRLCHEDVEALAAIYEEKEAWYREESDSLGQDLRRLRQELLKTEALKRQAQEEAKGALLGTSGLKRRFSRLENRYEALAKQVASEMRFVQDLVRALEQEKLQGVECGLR
Chain of Receptor tyrosine-protein kinase erbB-2 (Homo sapiens) (P04626 whole entry): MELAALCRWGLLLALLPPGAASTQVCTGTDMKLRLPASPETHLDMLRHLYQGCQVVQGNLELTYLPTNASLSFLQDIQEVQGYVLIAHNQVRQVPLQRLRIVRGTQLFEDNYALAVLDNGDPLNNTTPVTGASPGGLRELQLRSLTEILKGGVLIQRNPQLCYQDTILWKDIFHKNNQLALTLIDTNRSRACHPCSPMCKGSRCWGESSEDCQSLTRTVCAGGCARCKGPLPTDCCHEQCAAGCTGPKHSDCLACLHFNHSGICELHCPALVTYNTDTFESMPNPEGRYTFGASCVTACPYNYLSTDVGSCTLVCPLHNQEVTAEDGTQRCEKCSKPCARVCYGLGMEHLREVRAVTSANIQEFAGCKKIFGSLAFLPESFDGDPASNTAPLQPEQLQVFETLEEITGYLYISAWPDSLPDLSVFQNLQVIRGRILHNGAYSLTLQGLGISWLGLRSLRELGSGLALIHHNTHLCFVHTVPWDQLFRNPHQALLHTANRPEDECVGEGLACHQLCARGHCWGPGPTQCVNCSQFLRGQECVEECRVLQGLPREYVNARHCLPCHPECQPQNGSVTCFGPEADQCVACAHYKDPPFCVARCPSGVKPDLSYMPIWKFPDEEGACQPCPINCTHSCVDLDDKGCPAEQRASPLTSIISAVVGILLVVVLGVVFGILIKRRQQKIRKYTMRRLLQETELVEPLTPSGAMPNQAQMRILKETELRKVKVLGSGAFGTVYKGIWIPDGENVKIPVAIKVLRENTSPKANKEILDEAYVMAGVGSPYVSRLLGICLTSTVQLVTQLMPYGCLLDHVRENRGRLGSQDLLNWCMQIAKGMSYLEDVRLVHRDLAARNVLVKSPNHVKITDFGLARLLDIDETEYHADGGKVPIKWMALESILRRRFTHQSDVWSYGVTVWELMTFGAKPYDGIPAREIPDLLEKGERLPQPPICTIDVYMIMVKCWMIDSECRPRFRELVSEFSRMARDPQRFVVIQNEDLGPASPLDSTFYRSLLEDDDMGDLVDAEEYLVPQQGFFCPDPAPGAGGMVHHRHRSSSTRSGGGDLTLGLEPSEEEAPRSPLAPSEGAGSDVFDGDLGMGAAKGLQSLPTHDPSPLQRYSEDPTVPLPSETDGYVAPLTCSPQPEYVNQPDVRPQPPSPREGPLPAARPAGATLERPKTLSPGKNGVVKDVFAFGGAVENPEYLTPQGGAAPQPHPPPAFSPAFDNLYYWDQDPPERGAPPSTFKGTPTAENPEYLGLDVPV
Chain of Tyrosine-protein kinase ABL1 (Homo sapiens) (P00519 whole entry): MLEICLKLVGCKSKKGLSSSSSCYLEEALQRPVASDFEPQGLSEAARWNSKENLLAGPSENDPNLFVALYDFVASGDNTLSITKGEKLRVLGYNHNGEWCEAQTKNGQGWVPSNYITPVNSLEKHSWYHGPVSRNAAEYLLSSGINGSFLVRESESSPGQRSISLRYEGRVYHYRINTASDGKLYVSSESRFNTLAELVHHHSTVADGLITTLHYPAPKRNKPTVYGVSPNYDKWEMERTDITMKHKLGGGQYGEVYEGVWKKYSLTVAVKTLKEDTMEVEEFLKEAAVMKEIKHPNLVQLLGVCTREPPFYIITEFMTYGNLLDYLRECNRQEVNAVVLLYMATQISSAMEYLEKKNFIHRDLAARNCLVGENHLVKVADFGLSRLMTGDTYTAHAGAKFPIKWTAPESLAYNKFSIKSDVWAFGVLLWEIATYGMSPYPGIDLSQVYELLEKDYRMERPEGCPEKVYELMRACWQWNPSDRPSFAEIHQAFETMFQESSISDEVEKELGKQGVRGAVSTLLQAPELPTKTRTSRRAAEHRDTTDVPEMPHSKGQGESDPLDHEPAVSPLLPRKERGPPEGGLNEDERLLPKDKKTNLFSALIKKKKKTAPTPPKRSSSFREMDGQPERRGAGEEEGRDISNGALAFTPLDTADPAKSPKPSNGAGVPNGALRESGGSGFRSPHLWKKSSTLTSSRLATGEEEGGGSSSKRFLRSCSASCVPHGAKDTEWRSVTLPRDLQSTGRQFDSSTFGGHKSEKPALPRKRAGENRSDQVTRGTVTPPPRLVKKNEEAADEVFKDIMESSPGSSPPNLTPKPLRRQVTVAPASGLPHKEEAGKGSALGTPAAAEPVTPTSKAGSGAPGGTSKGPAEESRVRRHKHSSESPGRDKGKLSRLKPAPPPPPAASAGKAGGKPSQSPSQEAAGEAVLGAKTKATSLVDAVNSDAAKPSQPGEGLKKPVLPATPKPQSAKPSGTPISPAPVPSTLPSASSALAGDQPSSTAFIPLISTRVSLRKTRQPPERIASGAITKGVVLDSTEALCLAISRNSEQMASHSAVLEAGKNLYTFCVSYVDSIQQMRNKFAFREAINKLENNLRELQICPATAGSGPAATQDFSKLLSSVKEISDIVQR
Chain of Serine/threonine-protein kinase PAK 1 (Homo sapiens) (Q13153 whole entry): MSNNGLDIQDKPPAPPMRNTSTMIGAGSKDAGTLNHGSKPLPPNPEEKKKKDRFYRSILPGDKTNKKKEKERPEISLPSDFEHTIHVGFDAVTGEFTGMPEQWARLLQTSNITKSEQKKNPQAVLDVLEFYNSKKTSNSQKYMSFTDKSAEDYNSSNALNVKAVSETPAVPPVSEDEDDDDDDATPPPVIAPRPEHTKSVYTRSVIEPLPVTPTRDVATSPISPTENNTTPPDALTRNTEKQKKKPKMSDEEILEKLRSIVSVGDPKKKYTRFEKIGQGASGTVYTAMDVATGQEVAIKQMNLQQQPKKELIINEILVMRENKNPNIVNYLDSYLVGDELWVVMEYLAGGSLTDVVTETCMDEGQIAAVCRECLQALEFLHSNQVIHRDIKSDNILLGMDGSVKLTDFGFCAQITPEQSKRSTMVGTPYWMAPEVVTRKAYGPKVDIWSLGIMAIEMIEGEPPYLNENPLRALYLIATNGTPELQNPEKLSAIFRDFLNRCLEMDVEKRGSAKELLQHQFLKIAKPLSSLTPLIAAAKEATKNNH

As for `Cn1c(=O)c(Oc2ccc(F)cc2F)cc2cnc(NCCc3ccccn3)nc21`, the inhibition in test [1] was 4%; in test [2] it was 55%; in test [3], 95%; in test [4] it was 17%; in test [5], 0%; in test [6], 6%. The inhibition stood at 11% in test [7]; 19% in test [8]; 0% in [9]; 0% in test [10]; 7% in test [11]; 22% in test [12]. Besides, in [13], the IC50 came to 6.75 µM. For the same compound, the Activity in test [14] was 82%.
